Test results as given in US8822463B2, “Methylcyclohexane derivatives and uses thereof” (Sk Biopharmaceuticals Co., Ltd., priority 2010, dated 2014).
pIC50: −log10 of the molar value. Read-outs that look alike come from different tables or passages of the source.

What was measured:
[1] = test system: LPS-induced NO production in mouse microglia (BV2); assay: LPS-induced NO production inhibition test, mouse microglia (BV2); assay type: cell-based; conditions: BV-2, BV2 cells, 20 ng/ml LPS, 24 hours, Griess reagent
Description: (§1) Mouse monocytes (RAW) and mouse microglia (BV2) cells were cultured on a 96-well transparent plate (Nunc) in such a way that each of the wells contained 60,000 and 35,000 cells respectively. After 18 hours, when stabilized, the cells were treated with lipopolysaccharide (Sigma, USA, Cat No. L2630) in a morbid state derived from 20 ng/ml of Escherichia coli O111:B4 and 4 different concentrations (50 uM, 12.5 uM, 3.1 uM, and 0.8 uM) of the compounds synthesized according to Examples 1 to 55. Then, the cells were cultured for 24 hours, and a concentration of increased NO was measured. The NO concentration was determined by measuring absorption at a wavelength of 540 nm after a Griess reagent including 0.1% N-(1-naphthyl)ethylenediamine dihydrochloride, 1% sulfanilamide, and 2.5% phosphoric acid were added thereto.

[2] = test system: neuropathic pain (mechanical allodynia) in rats with caudal nerve damage; assay: Pain relief test using animal model (caudal nerve damage neuropathic pain, mechanical allodynia); assay type: in vivo; conditions: ip, rat, von Frey, reference concentration 30 mg/kg, read-out: Pain test results (% MPE, 50% tail withdrawal threshold)
Description: Male rats (Sprague-Dawley, 150-200 g, 6-week old, Orient Bio Co., Ltd) were purchased and acclimated in an animal chamber for one week. The animal chamber was alternately turned on and off at a time interval of 12 hours, at a temperature of 22 to 25° C., and in a relative humidity of 40-60%, and water and feed was supplied ad libitum to the rats.
The rats were placed in a round acryl container (5.5 15, 6.5 18 cm, which varied according to the size of body) and only the tails thereof were taken out of the container and placed on a plate. To confirm a pain behavior corresponding to a mechanical stimulus, an up-down method (J. Neurosci. Methods 53:55-63) was performed using a von Frey filament so as to measure “50% tail withdrawal threshold.
During all the steps before surgery, anesthesia was maintained with a mixed gas including 2-3% enflurane and 95% oxygen.
The compounds were each prepared as a solution form by using 5% DMSO, 5% Cremophore, and 90% distilled water on a volumetric basis. Each of the solutions was intraperitoneally administered in a volume of 3 ml per kg of a rat. The concentration of the compounds was controlled according to a compound and the concentration of reference was 30 mg/kg. […]
Anti-allodynic effects of the compounds were described as mean±SEM, and were compared each other by referring to “% MPE (the percentage of maximum possible effect),” and analyzed using one-way ANOVA and Bonferroni's t-test. […] [% MPE=(the threshold with respect to time after the drug treatment−the threshold at 0 hr)/(15−the threshold at 0 hr)×100]

[3] = test system: LPS-induced NO production in mouse monocytes (RAW); assay: LPS-induced NO production inhibition test, mouse monocytes (RAW); assay type: cell-based; conditions: Monocyte, RAW cells, 20 ng/ml LPS, 24 hours, Griess reagent
Description: as §1

[4] = at 1 hour after intraperitoneal administration
[5] = at 4 hours after intraperitoneal administration

SMILES	pIC50 [1]	inhibition in vivo [2, 4]	pIC50 [3]	inhibition in vivo [2, 5]
O=C(NCc1cccnc1)OC1CCC(COC(=O)N2CCCC2)CC1 (centres unmarked) [Example 8, pyrrolidine-1-carboxylic acid 4-(pyridin-3-ylmethylcarbamoyloxy)-cyclohexylmethyl ester]	5.24	11%	< 4.30	–
Cc1cccc(CNC(=O)OC2CCC(COC(=O)N3CCCC3)CC2)n1 (centres unmarked) [Example 15, pyrrolidine-1-carboxylic acid 4-(6-methyl-pyridin-2-ylmethylcarbamoyloxy)-cyclohexylmethyl ester]	4.71	29.2%	4.70	–
O=C(NCc1ccnc(Cl)c1)OC1CCC(COC(=O)N2CCCC2)CC1 (centres unmarked) [Example 16, pyrrolidine-1-carboxylic acid 4-(2-chloro-pyridin-4-ylmethylcarbamoyloxy)-cyclohexylmethyl ester]	4.97	–	4.55	16.4%
O=C(NCc1ccc(Cl)nc1)OC1CCC(COC(=O)N2CCCC2)CC1 (centres unmarked) [Example 17, pyrrolidine-1-carboxylic acid 4-(6-chloro-pyridin-3-ylmethylcarbamoyloxy)-cyclohexylmethyl ester]	4.90	5.8%	4.53	–
O=C(NCc1cccnc1Cl)OC1CCC(COC(=O)N2CCCC2)CC1 (centres unmarked) [Example 18, pyrrolidine-1-carboxylic acid 4-(2-chloro-pyridin-3-ylmethylcarbamoyloxy)-cyclohexylmethyl ester]	4.74	22.5%	5.24	–
O=C(Nc1ccncc1)OC1CCC(COC(=O)N2CCCC2)CC1 (centres unmarked) [Example 20, pyrrolidine-1-carboxylic acid 4-(pyridin-4-ylcarbamoyloxy)-cyclohexylmethyl ester]	4.42	–	4.30	22%
O=C(Nc1ccccn1)OC1CCC(COC(=O)N2CCCC2)CC1 (centres unmarked) [Example 21, pyrrolidine-1-carboxylic acid 4-(pyridin-2-ylcarbamoyloxy)-cyclohexylmethyl ester]	4.35	35.2%	4.80	–
O=C(Nc1ccnc(Cl)c1)OC1CCC(COC(=O)N2CCCC2)CC1 (centres unmarked) [Example 23, pyrrolidine-1-carboxylic acid 4-(2-chloro-pyridin-4-ylcarbamoyloxy)-cyclohexylmethyl ester]	< 4.30	–	4.54	18.7%
O=C(NC1CCC(COC(=O)N2CCCC2)CC1)OCc1ccccn1 (centres unmarked) [Example 40, pyrrolidine-1-carboxylic acid 4-(pyridin-2-ylmethoxycarbonylamino)-cyclohexylmethyl ester]	< 4.30	–	< 4.30	11%
O=C(NC1CCC(COC(=O)N2CCCC2)CC1)OCc1ccncc1 (centres unmarked) [Example 42, pyrrolidine-1-carboxylic acid 4-(pyridin-4-ylmethoxycarbonylamino)-cyclohexylmethyl ester]	< 4.30	–	4.30	57%
Cc1ncccc1COC(=O)NC1CCC(COC(=O)N2CCCC2)CC1 (centres unmarked) [Example 48, pyrrolidine-1-carboxylic acid 4-(2-methyl-pyridin-3-ylmethoxycarbonylamino)-cyclohexylmethyl ester]	4.99	–	4.87	–
Cc1cccc(COC(=O)NC2CCC(COC(=O)N3CCCC3)CC2)n1 (centres unmarked) [Example 49, pyrrolidine-1-carboxylic acid 4-(6-methyl-pyridin-2-ylmethoxycarbonylamino)-cyclohexylmethyl ester]	4.99	–	4.92	–
O=C(NC1CCC(COC(=O)N2CCCC2)CC1)OCc1ccc(C(F)(F)F)nc1 (centres unmarked) [Example 50, pyrrolidine-1-carboxylic acid 4-(6-trifluoromethyl-pyridin-3-ylmethoxycarbonylamino)-cyclohexylmethyl ester]	4.85	–	5.24	–
O=C(NC1CCC(COC(=O)N2CCCC2)CC1)OCc1cccc[n+]1[O-] (centres unmarked) [Example 51, pyrrolidine-1-carboxylic acid 4-(1-oxy-pyridin-2-ylmethoxycarbonylamino)-cyclohexylmethyl ester]	< 4.30	–	4.30	–
O=C(NC1CCC(COC(=O)N2CCCC2)CC1)OCc1ccc[n+]([O-])c1 (centres unmarked) [Example 52, pyrrolidine-1-carboxylic acid 4-(1-oxy-pyridin-3-ylmethoxycarbonylamino)-cyclohexylmethyl ester]	< 4.30	–	4.65	–
O=C(NC1CCC(COC(=O)N2CCCC2)CC1)OCc1cc[n+]([O-])cc1 (centres unmarked) [Example 53, pyrrolidine-1-carboxylic acid 4-(1-oxy-pyridin-4-ylmethoxycarbonylamino)-cyclohexylmethyl ester]	< 4.30	–	4.47	–
O=C(NCc1ccncc1)OC1CCC(CNC(=O)N2CCCC2)CC1 (centres unmarked) [Example 54, pyridin-4-ylmethyl-carbamic acid 4-{[(pyrrolidine-1-carbonyl)-amino]-methyl}-cyclohexyl ester]	< 4.30	10.5%	4.31	–
O=C(NCc1ccncc1)OC1CCC(CNC(=O)C2CCCC2)CC1 (centres unmarked) [Example 55, pyridin-4-ylmethyl-carbamic acid 4-[(cyclopentanecarbonyl-amino)-methyl]-cyclohexyl ester]	< 4.30	–	4.59	–
